Source: US9302999B2, “Substituted triazoles as herbicides” (E. I. DU PONT DE NEMOURS AND COMPANY, priority 2012, dated 2016)

How the values were obtained:
Format in all cases: in vivo
[1] = tested on: soybean (Glycine max); test: Test C pre-/postemergence: soybean
Method in brief: (§1)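 Preemergence on seeds in loam/sand, postemergence on 2–18 cm (1–4-leaf) plants in peat-based medium; compounds in non-phytotoxic solvent with surfactant. After 13–15 days in greenhouse, visual rating versus controls, 0 (no effect) to 100 (complete control).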

[2] = tested on: surinam grass (Brachiaria decumbens); test: Test C pre-/postemergence: surinam grass
Source text: (§2) Seeds of plant species selected from blackgrass (Alopecurus myosuroides), bromegrass, downy (downy bromegrass, Bromus tectorum), foxtail, green (green foxtail, Setaria viridis), ryegrass, Italian (Italian ryegrass, Lolium multiflorum), winter wheat (Triticum aestivum), wild oat (Avena fatua), galium (catchweed bedstraw, Galium aparine), bermudagrass (Cynodon dactylon), surinam grass (Brachiaria decumbens), cocklebur (common cocklebur, Xanthium strumarium), corn (Zea mays), large crabgrass (Digitaria sanguinalis), woolly cupgrass (Eriochloa villosa), foxtail, giant (giant foxtail, Setaria faberii), goosegrass (Eleusine indica), johnsongrass (Sorghum halepense), kochia (Kochia scoparia), lambsquarters (Chenopodium album), morningglory (Ipomoea coccinea), nightshade (eastern black nightshade, Solanum ptycanthum), nutsedge, yellow (yellow nutsedge, Cyperus esculentus), pigweed (Amaranthus retroflexus), ragweed (common ragweed, Ambrosia elation), soybean (Glycine max), common (oilseed) sunflower (Helianthus annuus), Russian thistle (Salsola kali) and velvetleaf (Abutilon theophrasti) were planted into a blend of loam soil and sand and treated preemergence with test chemicals formulated in a non-phytotoxic solvent mixture which included a surfactant.
(§3) At the same time, plants selected from these crop and weed species and also barley (winter barley, Hordeum vulgare), canarygrass (Phalaris minor), chickweed (common chickweed, Stellaria media) windgrass (Apera spica-venti) and deadnettle (henbit deadnettle, Lamium amplexicaule) were planted in pots containing Redi-Earth® planting medium (Scotts Company, 14111 Scottslawn Road, Marysville, Ohio 43041) comprising spaghnum peat moss, vermiculite, wetting agent and starter nutrients and treated with postemergence applications of test chemicals formulated in the same manner. Plants ranged in height from 2 to 18 cm (1- to 4-leaf stage) for postemergence treatments.
(§4) Treated plants and controls were maintained in a greenhouse for 13 to 15 days, after which time all species were compared to controls and visually evaluated. Plant response ratings, summarized in Table C, are based on a scale of 0 to 100 where 0 is no effect and 100 is complete control. A dash (-) response means no test result.

[3] = tested on: wild oat (Avena fatua); test: Test C pre-/postemergence: wild oat
Source text: as §2, §3, §4

[4] = tested on: lambsquarters (Chenopodium album); test: Test C pre-/postemergence: lambsquarters
Method in brief: as §1

[5] = tested on: foxtail, giant (giant foxtail, Setaria faberii); test: Test C pre-/postemergence: foxtail, giant
Method in brief: as §1

[6] = tested on: woolly cupgrass (Eriochloa villosa); test: Test C pre-/postemergence: woolly cupgrass
Method in brief: as §1

[7] = tested on: corn (Zea mays); test: Test C pre-/postemergence: corn
Method in brief: as §1

[8] = tested on: bermudagrass (Cynodon dactylon); test: Test C pre-/postemergence: bermudagrass
Method in brief: as §1

[9] = tested on: velvetleaf (Abutilon theophrasti); test: Test C pre-/postemergence: velvetleaf
Method in brief: as §1

[10] = tested on: deadnettle (henbit deadnettle, Lamium amplexicaule); test: Test C postemergence: deadnettle
Method in brief: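 Visual 0–100 injury score vs untreated controls (0 none, 100 complete control), taken 13–15 d after treatment. Postemergence spray on potted plants, 2–18 cm, 1–4 leaves; greenhouse.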

[11] = Postemergence, 31 g ai/ha, scale 0 to 100 (0 no effect, 100 complete control)
[12] = Postemergence, 62 g ai/ha, scale 0 to 100 (0 no effect, 100 complete control)
[13] = Postemergence, 125 g ai/ha, scale 0 to 100, 0 no effect, 100 complete control
[14] = Postemergence, 250 g ai/ha, scale 0 to 100
[15] = Preemergence, 31 g ai/ha, scale of 0 to 100, 0 is no effect, 100 is complete control
[16] = Preemergence, 62 g ai/ha, scale of 0 to 100, 0 is no effect, 100 is complete control
[17] = Preemergence, 125 g ai/ha, scale 0 to 100, 0 no effect, 100 complete control
[18] = Preemergence, 250 g ai/ha, scale 0 to 100, 0 no effect, 100 complete control
[19] = Preemergence, 62 g ai/ha, scale 0 to 100, 0 no effect, 100 complete control

In the case of `Cc1nn(-c2ccc(C(F)(F)F)cn2)nc1Oc1ccnc(C(F)(F)F)c1` [Compound 23], the “Plant response rating, Soybean” value [1, 11] is reported as 30, the “Plant response rating, Soybean” value [1, 12] is reported as 55 and the “Plant response rating, Soybean” value [1, 13] is reported as 55. The “Plant response rating, Soybean” value [1, 14] was 65, the “Plant response rating, Soybean” value [1, 15] was 0 and the “Plant response rating, Soybean” value [1, 16] was 5. The “Plant response rating, Soybean” value [1, 17] was 10, the “Plant response rating, Soybean” value [1, 18] was 50 and the “Plant response rating, Surinam Grass” value [2, 11] was 5. The “Plant response rating, Surinam Grass” value [2, 12] was 10, the “Plant response rating, Surinam Grass” value [2, 13] was 10 and the “Plant response rating, Surinam Grass” value [2, 14] was 15. For the same molecule, the “Plant response rating, Surinam Grass” value [2, 15] was 15, the “Plant response rating, Surinam Grass” value [2, 16] was 60 and the “Plant response rating, Surinam Grass” value [2, 17] was 100. For the same molecule, the “Plant response rating, Surinam Grass” value [2, 18] was 100, the “Plant response rating, Oat, Wild” value [3, 11] was 5 and the “Plant response rating, Oat, Wild” value [3, 12] was 10. For the same molecule, the “Plant response rating, Oat, Wild” value [3, 13] was 35, the “Plant response rating, Oat, Wild” value [3, 14] was 35 and the “Plant response rating, Oat, Wild” value [3, 15] was 45. The “Plant response rating, Oat, Wild” value [3, 16] was 80, the “Plant response rating, Oat, Wild” value [3, 17] was 80 and the “Plant response rating, Oat, Wild” value [3, 18] was 100. For the same molecule, the “Plant response rating, Lambsquarters” value [4, 11] was 40, the “Plant response rating, Lambsquarters” value [4, 12] was 40 and the “Plant response rating, Lambsquarters” value [4, 13] was 98. For the same molecule, the “Plant response rating, Lambsquarters” value [4, 14] was 98, the “Plant response rating, Lambsquarters” value [4, 15] was 95 and the “Plant response rating, Lambsquarters” value [4, 16] was 98. The “Plant response rating, Lambsquarters” value [4, 17] was 98, the “Plant response rating, Lambsquarters” value [4, 18] was 100 and the “Plant response rating, Foxtail, Giant” value [5, 11] was 15. The “Plant response rating, Foxtail, Giant” value [5, 12] was 15, the “Plant response rating, Foxtail, Giant” value [5, 13] was 15 and the “Plant response rating, Foxtail, Giant” value [5, 14] was 25. The “Plant response rating, Foxtail, Giant” value [5, 15] was 98, the “Plant response rating, Foxtail, Giant” value [5, 16] was 100 and the “Plant response rating, Foxtail, Giant” value [5, 17] was 100. For the same molecule, the “Plant response rating, Foxtail, Giant” value [5, 18] was 100, the “Plant response rating, Cupgrass, Woolly” value [6, 11] was 10 and the “Plant response rating, Cupgrass, Woolly” value [6, 12] was 10. For the same molecule, the “Plant response rating, Cupgrass, Woolly” value [6, 13] was 15, the “Plant response rating, Cupgrass, Woolly” value [6, 14] was 50 and the “Plant response rating, Cupgrass, Woolly” value [6, 15] was 95. For the same molecule, the “Plant response rating, Cupgrass, Woolly” value [6, 16] was 100, the “Plant response rating, Cupgrass, Woolly” value [6, 17] was 100 and the “Plant response rating, Cupgrass, Woolly” value [6, 18] was 100. The “Plant response rating, Corn” value [7, 11] was 10, the “Plant response rating, Corn” value [7, 12] was 15 and the “Plant response rating, Corn” value [7, 13] was 20. For the same molecule, the “Plant response rating, Corn” value [7, 14] was 30, the “Plant response rating, Corn” value [7, 15] was 5 and the “Plant response rating, Corn” value [7, 19] was 30. For the same molecule, the “Plant response rating, Corn” value [7, 17] was 70, the “Plant response rating, Corn” value [7, 18] was 85 and the “Plant response rating, Bermudagrass” value [8, 11] was 5. For the same molecule, the “Plant response rating, Bermudagrass” value [8, 12] was 10, the “Plant response rating, Bermudagrass” value [8, 13] was 15 and the “Plant response rating, Bermudagrass” value [8, 14] was 30. The “Plant response rating, Bermudagrass” value [8, 15] was 100, the “Plant response rating, Bermudagrass” value [8, 19] was 100 and the “Plant response rating, Bermudagrass” value [8, 17] was 100. For the same molecule, the “Plant response rating, Bermudagrass” value [8, 18] was 100, the “Plant response rating, Velvetleaf” value [9, 11] was 15 and the “Plant response rating, Velvetleaf” value [9, 12] was 25. The “Plant response rating, Velvetleaf” value [9, 13] was 40, the “Plant response rating, Velvetleaf” value [9, 14] was 50 and the “Plant response rating, Velvetleaf” value [9, 15] was 5. The “Plant response rating, Velvetleaf” value [9, 16] was 25, the “Plant response rating, Velvetleaf” value [9, 17] was 80 and the “Plant response rating, Velvetleaf” value [9, 18] was 100. The “Plant response rating, Deadnettle” value ([10]; 31 g ai/ha, scale 0 to 100 (0 no effect, 100 complete control)) was 80, the “Plant response rating, Deadnettle” value ([10]; 62 g ai/ha, scale 0 to 100 (0 no effect, 100 complete control)) was 80 and the “Plant response rating, Deadnettle” value ([10]; 125 g ai/ha, scale 0 to 100, 0 no effect, 100 complete control) was 85. The “Plant response rating, Deadnettle” value ([10]; 250 g ai/ha, scale 0 to 100) was 98.
